Laboratory results published in ChEMBL document CHEMBL3045517, “Tolerance of tomato, pepper and potato to pre-emergence applications of saflufenacil” (Crop Prot, 2012).

How the values were obtained:
Assay type in all cases: organism-based
Solanum tuberosum [1] = assay: Toxicity against Solanum tuberosum Superior (potato) assessed as dose required to cause 5% yield loss applied within 3 days after seeding measured at maturity of the crop; details: in vivo, 72 h
Capsicum annuum [2] = assay: Toxicity against Capsicum annuum Socrates (pepper) assessed as dose required to cause 5% yield loss applied within 3 days prior to transplantation measured at maturity of the crop; details: in vivo, 72 h
Solanum lycopersicum [3] = assay: Toxicity against Solanum lycopersicum (tomato) H9909 assessed as dose required to cause 5% yield loss applied within 3 days prior to transplantation measured at maturity of the crop; details: in vivo, 72 h
Solanum tuberosum [4] = assay: Toxicity against Solanum tuberosum Superior (potato) assessed as decrease in marketable yield at 100 g ai/ha preemergence application measured at maturity of the crop; parameters: scale not given: the % may be the effect or the level left; details: in vivo, other
Capsicum annuum [5] = assay: Toxicity against Capsicum annuum Socrates (pepper) assessed as decrease in marketable yield at 100 g ai/ha pretransplant application measured at maturity of the crop; parameters: scale not given: the % may be the effect or the level left; details: in vivo, other
Solanum lycopersicum [6] = assay: Toxicity against Solanum lycopersicum (tomato) H9909 assessed as decrease in marketable yield at 100 g ai/ha pretransplant application measured at maturity of the crop; parameters: scale not given: the % may be the effect or the level left; details: in vivo, other
Solanum tuberosum [7] = assay: Toxicity against Solanum tuberosum Superior (potato) assessed as dose required to cause 5% growth reduction applied within 3 days after seeding measured at 28 days after crop emergence; details: in vivo
Capsicum annuum [8] = assay: Toxicity against Capsicum annuum Socrates (pepper) assessed as dose required to cause 5% growth reduction applied within 3 days prior to transplantation measured at 28 days after crop transplanting; details: in vivo, 672 h
Solanum lycopersicum [9] = assay: Toxicity against Solanum lycopersicum (tomato) H9909 assessed as dose required to cause 5% growth reduction applied within 3 days prior to transplantation measured at 28 days after crop transplanting; details: in vivo, 672 h
Solanum tuberosum [10] = assay: Toxicity against Solanum tuberosum Superior (potato) assessed as reduction in plant dry weight at 100 g ai/ha preemergence application measured at 28 days after crop emergence; parameters: scale not given: the % may be the effect or the level left; details: in vivo, other, 672 h
Capsicum annuum [11] = assay: Toxicity against Capsicum annuum Socrates (pepper) assessed as reduction in plant dry weight at 100 g ai/ha pretransplant application measured at 28 days after crop transplanting; parameters: scale not given: the % may be the effect or the level left; details: in vivo, other, 672 h
Solanum lycopersicum [12] = assay: Toxicity against Solanum lycopersicum (tomato) H9909 assessed as reduction in plant dry weight at 100 g ai/ha pretransplant application measured at 28 days after crop transplanting; parameters: scale not given: the % may be the effect or the level left; details: in vivo, other, 672 h
Solanum tuberosum [13] = assay: Toxicity against Solanum tuberosum Superior (potato) assessed as dose required to cause 5% visible injury applied within 3 days after seeding measured at 28 days after crop emergence; details: in vivo, 672 h
Capsicum annuum [14] = assay: Toxicity against Capsicum annuum Socrates (pepper) assessed as dose required to cause 5% visible injury applied within 3 days prior to transplantation measured at 28 days after crop transplanting; details: in vivo, 672 h
Solanum lycopersicum [15] = assay: Toxicity against Solanum lycopersicum (tomato) H9909 assessed as dose required to cause 5% visible injury applied within 3 days prior to transplantation measured at 28 days after crop transplanting; details: in vivo, 672 h
Solanum tuberosum [16] = assay: Toxicity against Solanum tuberosum Superior (potato) assessed as decrease in crop injury at 100 g ai/ha preemergence application measured at 28 days after crop emergence; parameters: scale not given: the % may be the effect or the level left; details: in vivo, other, 672 h
Capsicum annuum [17] = assay: Toxicity against Capsicum annuum Socrates (pepper) assessed as decrease in crop injury at 100 g ai/ha pretransplant application measured at 28 days after crop transplanting; parameters: scale not given: the % may be the effect or the level left; details: in vivo, other, 672 h
Solanum lycopersicum [18] = assay: Toxicity against Solanum lycopersicum (tomato) H9909 assessed as decrease in crop injury at 100 g ai/ha pretransplant application measured at 28 days after crop transplanting; parameters: scale not given: the % may be the effect or the level left; details: in vivo, other, 672 h
Capsicum annuum [19] = assay: Toxicity against Capsicum annuum (pepper) assessed as crop injury at 420 g ai/ha pretransplant application; details: in vivo, other

SMILES: CC(C)N(C)S(=O)(=O)NC(=O)c1cc(-n2c(=O)cc(C(F)(F)F)n(C)c2=O)c(F)cc1Cl [SAFLUFENACIL]
- Activity (Solanum tuberosum [1]): 19.7 gAi/ha
- Activity (Capsicum annuum [2]): 7 gAi/ha
- Activity (Solanum lycopersicum [3]): 8.8 gAi/ha
- Activity (Solanum tuberosum [4]): 18%
- Activity (Capsicum annuum [5]): 69%
- Activity (Solanum lycopersicum [6]): 57%
- Activity (Solanum tuberosum [7]): 15.5 gAi/ha
- Activity (Capsicum annuum [8]): 5.6 gAi/ha
- Activity (Solanum lycopersicum [9]): 6.7 gAi/ha
- Activity (Solanum tuberosum [10]): 30%
- Activity (Capsicum annuum [11]): 82%
- Activity (Solanum lycopersicum [12]): 73%
- Activity (Solanum tuberosum [13]): 105 gAi/ha
- Activity (Capsicum annuum [14]): 15.4 gAi/ha
- Activity (Solanum lycopersicum [15]): 17.5 gAi/ha
- Activity (Solanum tuberosum [16]): 5%
- Activity (Capsicum annuum [17]): 32%
- Activity (Solanum lycopersicum [18]): 29%

SMILES: Cc1nn(-c2cc(NS(C)(=O)=O)c(Cl)cc2Cl)c(=O)n1C(F)F [SULFENTRAZONE]
- Activity (Capsicum annuum [19]): 65%
